Assay results reported in US9249128B2 (priority 2010, dated 2016).
Read-outs that look alike come from different tables or passages of the source.

Biological target: T1, KIAA1363 (Mus musculus, UniProt Q8BLF1)
T1 construct: ABPP analysis of KIAA1363 activity in mouse brain membrane proteome; from tissue; host or cells: mouse brain (membrane fraction)
T1 sequence (Q8BLF1 1-408): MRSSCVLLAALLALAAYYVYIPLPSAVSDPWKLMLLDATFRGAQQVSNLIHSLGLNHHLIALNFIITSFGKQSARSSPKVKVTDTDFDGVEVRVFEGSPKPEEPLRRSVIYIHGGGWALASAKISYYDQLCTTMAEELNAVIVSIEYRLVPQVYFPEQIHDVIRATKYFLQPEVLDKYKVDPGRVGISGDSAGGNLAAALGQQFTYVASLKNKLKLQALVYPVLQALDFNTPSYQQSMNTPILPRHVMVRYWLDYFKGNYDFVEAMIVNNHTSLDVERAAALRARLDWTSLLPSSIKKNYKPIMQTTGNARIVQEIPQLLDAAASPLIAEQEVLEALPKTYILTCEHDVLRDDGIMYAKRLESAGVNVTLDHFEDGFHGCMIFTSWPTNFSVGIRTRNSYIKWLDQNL
Test: Gel-based competitive ABPP of KIAA1363 in mouse brain membrane proteome (FP-rhodamine)
Type: biochemical
Procedure: In various embodiments, the invention provides a method of inhibiting a serine hydrolase, comprising contacting the hydrolase with a compound of formula (I), e.g., a compound selected from set of compounds shown in Table 1, below. […] IC50 values were derived from ABPP analysis of KIAA1363 activity in mouse brain membrane proteome and are averages of three replicates. Inhibitors were added to the proteome for 30 min before addition of FP-rhodamine (1 μM, 30 min).
Tissues were Dounce-homogenized in PBS, pH 7.4, followed by a low-speed spin (1,400 g, 5 min) to remove debris. The supernatant was then subjected to centrifugation (100,000×g, 45 min) to provide the cytosolic fraction in the supernatant and the unsoluble fraction as a pellet. The pellet was washed and resuspended in PBS buffer by sonication. Total protein concentration in each fraction was determined using a protein assay kit (Bio-Rad). Samples were stored at −80° C. until use.
For ABPP experiments, cell lysate and tissue proteomes were treated with 1 μM FP-rhodamine for 30 min at room temperature (50 μL total reaction volume) as described previously (Nomura et al., 2010). Reactions were quenched with one volume of standard 4×SDS/PAGE loading buffer (reducing), separated by SDS/PAGE (10% acrylamide), and visualized in-gel with a Hitachi FMBio IIe flatbed fluorescence scanner (MiraiBio). Inhibitors were preincubated prior (30 min or 4 h at 37° C. in vitro or in situ, respectively) to the addition of FP-rhodamine.

[1] = mouse brain membrane proteome, inhibitor 30 min before FP-rhodamine (1 μM, 30 min), averages of three replicates, read-out: IC50 (KIAA1363)
[2] = screened against KIAA1363, Table 1, read-out: IC50 values of less than 1 micromolar

SMILES	IC50 [1] [nM]	IC50 [2] [nM]	IC50 [nM]
CCOc1ccccc1OC(=O)NCCCc1ccccc1	1790	–	–
Cc1ccc2ccccc2c1OC(=O)NCc1ccc(-c2ccccc2)cc1	> 50000	–	–
CCOc1ccccc1OC(=O)NCc1ccc(-c2ccccc2)cc1	> 50000	–	–
CCOc1ccccc1OC(=O)NCCc1cccs1	> 10000	–	–
CCOc1ccccc1OC(=O)NCCc1ccc2ccccc2c1	890	< 1000	–
CC1(C)Cc2cccc(OC(=O)NCc3ccc(I)cc3)c2O1 [JW147, 2,2-dimethyl-2,3-dihydrobenzofuran-7-yl 4-iodobenzylcarbamate]	148	< 1000	–
O=C(NCCc1ccc(F)cc1)Oc1ccc(-n2cccc2)cc1 [JW382, 4-(1H-pyrrol-1-yl)phenyl 4-fluorophenethylcarbamate]	1200	–	–
O=C(NCc1ccc(C(F)(F)F)cc1)Oc1ccc(-n2cccc2)cc1 [JW383, 4-(1H-pyrrol-1-yl)phenyl 4-(trifluoromethyl)benzylcarbamate]	997	< 1000	–
COc1ccc(CNC(=O)Oc2ccc(-n3cccc3)cc2)cc1 [JW384, 4-(1H-pyrrol-1-yl)phenyl 4-methoxybenzylcarbamate]	668	< 1000	–
Cc1ccc2ccccc2c1OC(=O)NCc1ccc(C(F)(F)F)cc1 [JW385, 2-methylnaphthalen-1-yl 4-(trifluoromethyl)benzylcarbamate]	> 50000	–	–
COc1ccc(CNC(=O)Oc2c(C)ccc3ccccc23)cc1 [JW386, 2-methylnaphthalen-1-yl 4-methoxybenzylcarbamate]	> 10000	–	–
CCOc1ccccc1OC(=O)NCc1ccc(C(F)(F)F)cc1 [JW387, 2-ethoxyphenyl 4-(trifluoromethyl)benzylcarbamate]	2820	–	–
CCOc1ccccc1OC(=O)NCc1ccc(OC)cc1 [JW388, 2-ethoxyphenyl 4-methoxybenzylcarbamate]	1610	–	–
O=C(NCc1ccc(OC(F)(F)F)cc1)Oc1ccc(-n2cccc2)cc1 [JW389, 4-(1H-pyrrol-1-yl)phenyl 4-(trifluoromethoxy)benzylcarbamate]	263	< 1000	–
Cc1ccc2ccccc2c1OC(=O)NCc1ccc(OC(F)(F)F)cc1 [JW390, 2-methylnaphthalen-1-yl 4-(trifluoromethoxy)benzylcarbamate]	> 10000	–	–
CCOc1ccccc1OC(=O)NCc1ccc(OC(F)(F)F)cc1 [JW391, 2-ethoxyphenyl 4-(trifluoromethoxy)benzylcarbamate]	1050	–	–
O=C(NCc1ccc(Cl)cc1)Oc1ccc(-n2cccc2)cc1 [JW392, 4-(1H-pyrrol-1-yl)phenyl 4-chlorobenzylcarbamate]	385	< 1000	–
O=C(NCCCc1ccccc1)Oc1ccc(-n2cccc2)cc1 [JW393, 4-(1H-pyrrol-1-yl)phenyl (3-phenylpropyl)carbamate]	> 50000	–	–
Cc1ccc2ccccc2c1OC(=O)NCc1ccc(Cl)cc1 [JW395, 2-methylnaphthalen-1-yl 4-chlorobenzylcarbamate]	> 50000	–	–
Cc1ccc2ccccc2c1OC(=O)NCCCc1ccccc1 [JW396, 2-methylnaphthalen-1-yl (3-phenylpropyl)carbamate]	> 10000	–	–
CCOc1ccccc1OC(=O)NCc1ccc(Cl)cc1 [JW398, 2-ethoxyphenyl 4-chlorobenzylcarbamate]	977	< 1000	–
CCCCc1ccc(CNC(=O)Oc2c(C)ccc3ccccc23)cc1 [JW406, 2-methylnaphthalen-1-yl 4-butylbenzylcarbamate]	> 50000	–	–
CCCCc1ccc(CNC(=O)Oc2ccccc2OCC)cc1 [JW409, 2-ethoxyphenyl 4-butylbenzylcarbamate]	> 50000	–	–
O=C(NCCc1ccc(Br)cc1)Oc1ccc(-n2cccc2)cc1 [JW412, 4-(1H-pyrrol-1-yl)phenyl 4-bromophenethylcarbamate]	1660	–	–
O=C(NCCc1cccs1)Oc1ccc(-n2cccc2)cc1 [JW413, 4-(1H-pyrrol-1-yl)phenyl (2-(thiophen-2-yl)ethyl)carbamate]	618	< 1000	–

SMILES	IC50 [1] [nM]	IC50 [2] [nM]	IC50 [nM]
O=C(NCCc1ccc2c(c1)OCO2)Oc1ccc(-n2cccc2)cc1 [JW414, 4-(1H-pyrrol-1-yl)phenyl (2-(benzo[d][1,3]dioxol-5-yl)ethyl)carbamate]	> 10000	–	–
Cc1ccc2ccccc2c1OC(=O)NCCc1ccc(Br)cc1 [JW415, 2-methylnaphthalen-1-yl 4-bromophenethylcarbamate]	1080	–	–
Cc1ccc2ccccc2c1OC(=O)NCCc1cccs1 [JW416, 2-methylnaphthalen-1-yl (2-(thiophen-2-yl)ethyl)carbamate]	3310	–	–
Cc1ccc2ccccc2c1OC(=O)NCCc1ccc2c(c1)OCO2 [JW417, 2-methylnaphthalen-1-yl (2-(benzo[d][1,3]dioxol-5-yl)ethyl)carbamate]	142	< 1000	–
CCOc1ccccc1OC(=O)NCCc1ccc(Br)cc1 [JW418, 2-ethoxyphenyl 4-bromophenethylcarbamate]	329	< 1000	–
CCOc1ccccc1OC(=O)NCCc1ccc2c(c1)OCO2 [JW420, 2-ethoxyphenyl (2-(benzo[d][1,3]dioxol-5-yl)ethyl)carbamate]	1340	–	–
O=C(NCCc1ccc(Cl)c(Cl)c1)Oc1ccc(-n2cccc2)cc1 [JW421, 4-(1H-pyrrol-1-yl)phenyl 3,4-dichlorophenethylcarbamate]	> 10000	–	–
Cc1ccc2ccccc2c1OC(=O)NCCc1ccc(Cl)c(Cl)c1 [JW422, 2-methylnaphthalen-1-yl 3,4-dichlorophenethylcarbamate]	665	< 1000	–
CCOc1ccccc1OC(=O)NCCc1ccc(Cl)c(Cl)c1 [JW423, 2-ethoxyphenyl 3,4-dichlorophenethylcarbamate]	498	< 1000	–
O=C(NCCN1CCOCC1)Oc1ccc(-n2cccc2)cc1 [JW425, 4-(1H-pyrrol-1-yl)phenyl (2-morpholinoethyl)carbamate]	–	–	> 50000
O=C(NCCc1cc2ccccc2[nH]1)Oc1ccc(-n2cccc2)cc1 [JW426, 4-(1H-pyrrol-1-yl)phenyl (2-(1H-indol-2-yl)ethyl)carbamate]	> 50000	–	–
Cc1ccc2ccccc2c1OC(=O)NCCN1CCOCC1 [JW427, 2-methylnaphthalen-1-yl (2-morpholinoethyl)carbamate]	–	–	> 50000
Cc1ccc2ccccc2c1OC(=O)NCCc1cc2ccccc2[nH]1 [JW428, 2-methylnaphthalen-1-yl (2-(1H-indol-2-yl)ethyl)carbamate]	3940	–	–
CCOc1ccccc1OC(=O)NCCN1CCOCC1 [JW429, 2-ethoxyphenyl (2-morpholinoethyl)carbamate]	–	–	> 50000
CCOc1ccccc1OC(=O)NCCc1cc2ccccc2[nH]1 [JW430, 2-ethoxyphenyl (2-(1H-indol-2-yl)ethyl)carbamate]	> 50000	–	–
COc1ccc(CCNC(=O)Oc2ccc(-n3cccc3)cc2)cc1 [JW431, 4-(1H-pyrrol-1-yl)phenyl 4-methoxyphenethylcarbamate]	1290	–	–
COc1cccc(CCNC(=O)Oc2ccc(-n3cccc3)cc2)c1 [JW432, 4-(1H-pyrrol-1-yl)phenyl 3-methoxyphenethylcarbamate]	> 10000	–	–
O=C(NCCC(c1ccccc1)c1ccccc1)Oc1ccc(-n2cccc2)cc1 [JW433, 4-(1H-pyrrol-1-yl)phenyl (3,3-diphenylpropyl)carbamate]	> 50000	–	–
O=C(NCC(c1ccccc1)c1ccccc1)Oc1ccc(-n2cccc2)cc1 [JW434, 4-(1H-pyrrol-1-yl)phenyl (2,2-diphenylethyl)carbamate]	> 50000	–	–
O=C(NCCc1ccc2ccccc2c1)Oc1ccc(-n2cccc2)cc1 [JW435, 4-(1H-pyrrol-1-yl)phenyl (2-(naphthalen-2-yl)ethyl)carbamate]	> 50000	–	–
COc1ccc(CCNC(=O)Oc2c(C)ccc3ccccc23)cc1 [JW436, 2-methylnaphthalen-1-yl 4-methoxyphenethylcarbamate]	3000	–	–
COc1cccc(CCNC(=O)Oc2c(C)ccc3ccccc23)c1 [JW437, 2-methylnaphthalen-1-yl 3-methoxyphenethylcarbamate]	209	< 1000	–
Cc1ccc2ccccc2c1OC(=O)NCCC(c1ccccc1)c1ccccc1 [JW438, 2-methylnaphthalen-1-yl (3,3-diphenylpropyl)carbamate]	> 50000	–	–
Cc1ccc2ccccc2c1OC(=O)NCC(c1ccccc1)c1ccccc1 [JW439, 2-methylnaphthalen-1-yl (2,2-diphenylethyl)carbamate]	> 50000	–	–
